Measured values as given in the OPERA property sets (Mansouri et al. 2018).

Structure (SMILES)	logP
C=CCN1C(=O)SC(=Cc2ccc([N+](=O)[O-])o2)C1=O	2.22
Oc1ccc(C(c2ccc(O)cc2)c2cccnc2)cc1	3.13
CSc1ccccc1/N=N/N(C)C	3.13
O=C1CN=C(c2ccccc2F)c2cc([N+](=O)[O-])ccc2N1	2.15
CCOC(=O)c1c(OC)cc(Cc2cnc(N)nc2N)cc1OC	1.25
COC12C(COC(N)=O)C3=C(C(=O)C(C)=C(Nc4ccccc4)C3=O)N1CC1NC12 (centres undefined)	1.3
Cc1ccccc1-c1nc(N)nc(N)n1	1.26
CC(C)(C)C1=Nc2ccc(Cl)cc2S(=O)(=O)N1	2.4
CCc1n[nH]c(=O)[nH]c1=O	0.22
CCCC(CO)n1cnc2c(N)ncnc21 (centres undefined)	0.66
CCOC(=O)c1c(OCC)cc(Cc2cnc(N)nc2N)cc1OCC	2.28
CSc1nncc(=O)n1N	0.38
N=C(N)NC(=O)Nc1ccc(Cl)c(Cl)c1	2.39
Cc1cccc(C)c1N=C1NCCN1	1.45
COc1cc(Cc2cnc(N)nc2N)ccc1SC	1.92
CCOC(=O)C(C#N)=NNc1cc(Cl)cc(Cl)c1	3.82
CNN=CCCc1ccccc1	1
O=c1nc(-c2ccccc2)c2cc(Br)ccc2[nH]1	2.71
CC(=O)Nc1ccc(OC(=O)CBr)cc1	1.08
CCCCC1OC(=O)c2cc(N)ccc21 (centres undefined)	2.86
Nc1nc(N)nc(-c2ccc(Cl)cc2Br)n1	2.09
CSCC1=C(C(=O)O)N2C(=O)C(NC(=O)Cc3cccs3)C2SC1 (centres undefined)	1.01
O=C(NCC(O)CO)Nc1ccccc1 (centres undefined)	0.28
COc1cc(S(=O)(=O)CCN2CCCCC2)cc(OC)c1OC	1.6
CN(C)C(=O)CCc1ccco1	0.62

Structure (SMILES)	logP
O=C1CN=C(c2ccc(C(F)(F)F)cc2)c2ccccc2N1	3.34
Clc1cc(Cl)c(Cl)c(-c2c(Cl)ccc(Cl)c2Cl)c1	7.15
CC1=C(C(=O)O)N2C(=O)C(NC(=O)Cc3cccs3)C2SC1 (centres undefined)	0.61
CC(=O)Nc1cc(C(F)(F)F)cc(C(F)(F)F)c1Br	3.51
CN(N=Nc1ccc(C(N)=O)cc1)C(C)(C)C	2.61
COc1ccc(OC2OC(CO)C(O)C(O)C2O)cc1 (centres undefined)	-0.73
COc1cccc(/C=C/[N+](=O)[O-])c1	2.37
CCCNc1ccc(C(=O)OCCN(C)C)cc1	3.15
CC(=O)Nc1c(C)c(C)c(O)c(C)c1C	0.95
CCCCCCCCCCCC[n+]1ccc(C)cc1C.[I-]	1.41
CSCN1C(=O)CN=C(c2ccccc2)c2cc(N)ccc21	1.92
COc1cc(S(=O)(=O)CC(O)c2ccccc2)cc(OC)c1OC (centres undefined)	1.65
CC1=C(C(=O)O)SCCO1	0.04
CCOc1ccc2nc(S(=O)(=O)NC)sc2c1	2.59
O=C1CN=C(c2cccc(Br)c2)c2cc(Br)ccc2N1	3.88
COc1cc(Cc2cnc(N)nc2N)ccc1OCc1ccccc1	2.66
CCN(CC)CCNC(=O)c1cc(F)cc(Cl)c1OC	3.18
CCC(C)c1nnc(N)o1 (centres undefined)	0.62
CCc1cc(NC(C)=O)ccc1O	1.31
Cc1ccoc1CN(C)C	1.63
Clc1cccc(C2NCCS2)c1 (centres undefined)	2.04
CCCOc1cccc(O)c1	2.59
CC(=O)NC1CC1c1ccccc1 (centres undefined)	1.43
Cc1cc(C)cc(NC(=O)N(C)C)c1	1.9
Brc1cccc(Br)c1NC1=NCCN1	1.96

Structure (SMILES)	logP
O=C(O)COc1cc(F)cc(I)c1	2.42
CCOc1cc(Cc2cnc(N)nc2N)cc(OCC)c1N	1.69
CCCNP(=O)(OC)Oc1cc(Cl)c(Cl)cc1Cl (centres undefined)	3.7
COCCN(CCOC)/N=N/c1nc[nH]c1C(N)=O	0.03
CCOc1cc(Cc2cnc(N)nc2N)cc(OCC)c1C(C)=O	2.04
CCOC(=O)C(=Cc1ccccc1OC)C(=O)OCC	3.29
O=C(NCc1ccccc1O)c1ccccc1	2.55
COc1cccc(N2C(=O)CCC2=O)c1	0.18
Cc1ccc(NC2=NCCN2)c(C)c1	1.79
O=C1CN=C(c2ccc(Br)cc2)c2cc(Br)ccc2N1	4.04
COc1ccc(Cc2cnc(N)nc2N)cc1Cl	1.65
CC(=O)C(C#N)=NNc1cc(C(F)(F)F)ccc1Cl	5.08
CN(C)C(=O)COc1ccccc1	0.8
O=[N+]([O-])c1nccn1CC(O)CCl (centres undefined)	0.15
Clc1ccc(-c2cc(Cl)ccc2Cl)cc1	5.69
Brc1n[nH]c(Br)n1	2.24
Cc1nnc(C=NO)s1	0.78
COCc1c(OC)cc(Cc2cnc(N)nc2N)cc1OC	1.19
O=CNC=Cc1ccccc1	1.95
NC1CC2CC1c1ccccc12 (centres undefined)	2
O=C1CCC2CCCCC2C1 (centres undefined)	1.97
O=C(O)COc1ccc(N=Nc2ccccc2)cc1	2.99
COC12C(COC(N)=O)C3=C(C(=O)C(C)=C(N)C3=O)N1CC1C2N1COC(=O)c1ccccc1 (centres undefined)	1.26
CN(C)C(=O)Oc1ccc(Cl)cc1	2.27
